Converted amounts (≈) assume the structure as drawn. The source made the active and inactive calls. The calls are words filed in the database; no cut-off is given here.
Tests used:
Escherichia coli [1] = experiment: Antibacterial activity against ciprofloxacin-resistant Escherichia coli JW5503 harboring GyrA Ser83Leu mutant after 16 to 18 hrs by broth microdilution method; type: functional
Bacillus cereus = experiment: Antibacterial activity against Bacillus cereus after 16 to 18 hrs by broth microdilution method; type: functional
Escherichia coli [2] = experiment: Antibacterial activity against Escherichia coli HB101 after 16 to 18 hrs by broth microdilution method; type: functional
Shigella flexneri = experiment: Antibacterial activity against Shigella flexneri after 16 to 18 hrs by broth microdilution method; type: functional
DNA gyrase = DNA gyrase (Escherichia coli, UniProt P0AES4+P0AES6); experiment: Inhibition of Escherichia coli DNA gyrase assessed as inhibition of pUC19 supercoiling after 30 mins by agarose gel electrophoresis; type: protein-complex assay
Escherichia coli [3] = experiment: Ratio of MIC for gyramide-resistant Escherichia coli JW5503 harboring GyrA Ser97Pro mutant to MIC for Escherichia coli JW5503; type: functional
Escherichia coli [4] = experiment: Antibacterial activity against Escherichia coli JW5503 overexpressing gyrB in presence of IPTG induction after 16 hrs by broth microdilution method; type: functional; settings: JW5503, 16 h
Escherichia coli [5] = experiment: Antibacterial activity against Escherichia coli HB101 after 16 to 18 hrs in presence of PAbetaN by broth microdilution method; type: functional
Staphylococcus aureus = experiment: Antibacterial activity against Staphylococcus aureus subsp. aureus clinical isolate after 16 to 18 hrs by broth microdilution method; type: functional
Enterococcus faecium = experiment: Antibacterial activity against Enterococcus faecium after 16 to 18 hrs by broth microdilution method; type: functional
[6] = tested on: Staphylococcus epidermidis; experiment: Antibacterial activity against Staphylococcus epidermidis clinical isolate after 16 to 18 hrs by broth microdilution method; type: functional
Bacillus subtilis = experiment: Antibacterial activity against Bacillus subtilis after 16 to 18 hrs by broth microdilution method; type: functional
Escherichia coli [7] = experiment: Antibacterial activity against gyramide-resistant Escherichia coli JW5503 harboring GyrB Thr508Met mutant after 16 to 18 hrs by broth microdilution method; type: functional
Escherichia coli [8] = experiment: Antibacterial activity against Escherichia coli BW25113 after 16 to 18 hrs by broth microdilution method; type: functional
Escherichia coli [9] = experiment: Ratio of MIC for gyramide-resistant Escherichia coli JW5503 harboring GyrA Phe96Leu mutant to MIC for Escherichia coli JW5503; type: functional
Acinetobacter baumannii = experiment: Antibacterial activity against Acinetobacter baumannii clinical isolate after 16 to 18 hrs by broth microdilution method; type: functional
Edwardsiella tarda = experiment: Antibacterial activity against Edwardsiella tarda clinical isolate after 16 to 18 hrs by broth microdilution method; type: functional
Klebsiella aerogenes = experiment: Antibacterial activity against Enterobacter aerogenes clinical isolate after 16 to 18 hrs by broth microdilution method; type: functional
[10] = target: DNA gyrase (Escherichia coli) (UniProt P0AES6+P0AES4); experiment: Inhibition of Escherichia coli DNA gyrase ATPase activity up to 100 uM using DNA as substrate after 60 mins; type: protein-complex assay
Salmonella typhimurium = experiment: Antibacterial activity against Salmonella enterica subsp. enterica serovar Typhimurium after 16 to 18 hrs by broth microdilution method; type: functional
Escherichia coli [11] = experiment: Antibacterial activity against Escherichia coli JW5503 after 16 to 18 hrs by broth microdilution method; type: functional
Streptococcus pyogenes = experiment: Antibacterial activity against Streptococcus pyogenes after 16 to 18 hrs by broth microdilution method; type: functional
Enterococcus faecalis = experiment: Antibacterial activity against Enterococcus faecalis after 16 to 18 hrs by broth microdilution method; type: functional
Escherichia coli [12] = experiment: Ratio of MIC for novobiocin-resistant Escherichia coli CC5 harboring GyrB Arg136His mutant to MIC for Escherichia coli HB101; type: functional
Escherichia coli [13] = experiment: Ratio of MIC for ciprofloxacin-resistant Escherichia coli JW5503 harboring GyrA Asp87Tyr mutant to MIC for Escherichia coli JW5503; type: functional
Escherichia coli [14] = experiment: Antibacterial activity against Escherichia coli JW5503 overexpressing gyrA in presence of IPTG induction after 16 hrs by broth microdilution method; type: functional; settings: JW5503, 16 h
Escherichia coli [15] = experiment: Antibacterial activity against ciprofloxacin-resistant Escherichia coli JW5503 harboring GyrA Asp87Tyr mutant after 16 to 18 hrs by broth microdilution method; type: functional
Escherichia coli [16] = experiment: Ratio of MIC for ciprofloxacin-resistant Escherichia coli JW5503 harboring GyrB Ser464Phe mutant to MIC for Escherichia coli JW5503; type: functional
Escherichia coli [17] = experiment: Ratio of MIC for novobiocin-resistant Escherichia coli LE316 harboring GyrB Arg136Val mutant to MIC for Escherichia coli HB101; type: functional
Pseudomonas aeruginosa = experiment: Antibacterial activity against Pseudomonas aeruginosa after 16 to 18 hrs by broth microdilution method; type: functional
Streptococcus agalactiae = experiment: Antibacterial activity against Streptococcus agalactiae after 16 to 18 hrs by broth microdilution method; type: functional
Escherichia coli [18] = experiment: Antibacterial activity against gyramide-resistant Escherichia coli JW5503 harboring GyrA Phe96Leu mutant after 16 to 18 hrs by broth microdilution method; type: functional
Escherichia coli [19] = experiment: Antibacterial activity against Escherichia coli JW5503 overexpressing gyrA/gyrB in absence of IPTG induction after 16 hrs by broth microdilution method; type: functional; settings: JW5503, 16 h
Escherichia coli [20] = experiment: Ratio of MIC for Escherichia coli MC4100 to MIC for Escherichia coli BAS849; type: functional
Escherichia coli [21] = experiment: Ratio of MIC for gyramide-resistant Escherichia coli JW5503 harboring GyrB Ser464Phe mutant to MIC for Escherichia coli JW5503; type: functional
Escherichia coli [22] = experiment: Antibacterial activity against gyramide-resistant Escherichia coli JW5503 harboring GyrA Pro35Thr mutant after 16 to 18 hrs by broth microdilution method; type: functional
Escherichia coli [23] = experiment: Ratio of MIC for ciprofloxacin-resistant Escherichia coli JW5503 harboring GyrA Asp87Gly mutant to MIC for Escherichia coli JW5503; type: functional
[24] = Ratio of MIC for Escherichia coli BW25113 to MIC for Escherichia coli JW5503; type: functional
Escherichia coli [25] = experiment: Antibacterial activity against Escherichia coli JW5503 simultaneously overexpressing gyrA/gyrB in presence of IPTG induction after 16 hrs by broth microdilution method; type: functional, organism-based
Escherichia coli [26] = experiment: Ratio of MIC for novobiocin-resistant Escherichia coli CC7 harboring GyrB Arg136Ser mutant to MIC for Escherichia coli HB101; type: functional
Klebsiella pneumoniae = experiment: Antibacterial activity against Klebsiella pneumoniae after 16 to 18 hrs by broth microdilution method; type: functional
Escherichia coli [27] = experiment: Antibacterial activity against Escherichia coli JW5503 overexpressing gyrA in absence of IPTG induction after 16 hrs by broth microdilution method; type: functional; settings: JW5503, 16 h
Escherichia coli [28] = experiment: Antibacterial activity against Escherichia coli JW5503 transfected with empty vector in absence of IPTG induction after 16 hrs by broth microdilution method; type: functional; settings: JW5503, 16 h
Escherichia coli [29] = experiment: Ratio of MIC for gyramide-resistant Escherichia coli JW5503 harboring GyrA Pro35Thr mutant to MIC for Escherichia coli JW5503; type: functional
[30] = tested on: Staphylococcus saprophyticus; experiment: Antibacterial activity against Staphylococcus saprophyticus clinical isolate after 16 to 18 hrs by broth microdilution method; type: functional
Escherichia coli [31] = experiment: Antibacterial activity against Escherichia coli BAS849 after 16 to 18 hrs by broth microdilution method; type: functional
Escherichia coli [32] = experiment: Antibacterial activity against gyramide-resistant Escherichia coli JW5503 harboring GyrA Ser97Pro mutant after 16 to 18 hrs by broth microdilution method; type: functional
Escherichia coli [33] = experiment: Antibacterial activity against gyramide-resistant Escherichia coli JW5503 harboring GyrA His45Tyr mutant after 16 to 18 hrs by broth microdilution method; type: functional
Escherichia coli [34] = experiment: Antibacterial activity against Escherichia coli JW5503 overexpressing gyrA/gyrB in presence of IPTG induction after 16 hrs by broth microdilution method; type: functional; settings: JW5503, 16 h
Escherichia coli [35] = experiment: Ratio of MIC for ciprofloxacin-resistant Escherichia coli JW5503 harboring GyrA Ser83Leu mutant to MIC for Escherichia coli JW5503; type: functional
Escherichia coli [36] = experiment: Antibacterial activity against Escherichia coli MC4100 after 16 to 18 hrs by broth microdilution method; type: functional
Escherichia coli [37] = experiment: Antibacterial activity against ciprofloxacin-resistant Escherichia coli JW5503 harboring GyrA Asp87Gly mutant after 16 to 18 hrs by broth microdilution method; type: functional
Morganella morganii = experiment: Antibacterial activity against Morganella morganii clinical isolate after 16 to 18 hrs by broth microdilution method; type: functional
Escherichia coli [38] = experiment: Ratio of MIC for gyramide-resistant Escherichia coli JW5503 harboring GyrA His45Tyr mutant to MIC for Escherichia coli JW5503; type: functional
Escherichia coli [39] = experiment: Antibacterial activity against Escherichia coli UPEC after 16 to 18 hrs by broth microdilution method; type: functional

Structure (SMILES): N#Cc1cccc(S(=O)(=O)N[C@@H]2CCN(Cc3ccc(-c4ccccc4)cc3)C2)c1
- MIC (Escherichia coli [1]): 0.2 µg/mL (≈ 0.479 µM)
- MIC (Bacillus cereus): > 16 µg/mL
- MIC (Escherichia coli [2]): > 16 µg/mL
- MIC (Shigella flexneri): 8 µg/mL (≈ 19.2 µM)
- IC50 (DNA gyrase): 52 nM
- Ratio (Escherichia coli [3]): 10 - 100
- MIC (Escherichia coli [4]): 0.1 µg/mL
- MIC (Escherichia coli [5]): 0.1 µg/mL
- MIC (Staphylococcus aureus): > 16 µg/mL
- MIC (Enterococcus faecium): > 16 µg/mL
- MIC [6]: > 16 µg/mL
- MIC (Bacillus subtilis): > 16 µg/mL
- MIC (Escherichia coli [7]): 10 µg/mL (≈ 24 µM)
- MIC (Escherichia coli [8]): 16 µg/mL (≈ 38.3 µM)
- Ratio (Escherichia coli [9]): 10 - 100
- MIC (Acinetobacter baumannii): > 16 µg/mL
- MIC (Edwardsiella tarda): 16 µg/mL (≈ 38.3 µM)
- MIC (Klebsiella aerogenes): > 16 µg/mL
- inhibition [10]: inactive
- MIC (Salmonella typhimurium): 2 µg/mL (≈ 4.79 µM)
- MIC (Escherichia coli [11]): 0.1 µg/mL (≈ 0.24 µM)
- MIC (Streptococcus pyogenes): > 16 µg/mL
- MIC (Enterococcus faecalis): > 16 µg/mL
- Ratio (Escherichia coli [12]): 2 - 4
- Ratio (Escherichia coli [13]): 2 - 4
- MIC (Escherichia coli [14]): 0.1 µg/mL
- MIC (Escherichia coli [15]): 0.4 µg/mL (≈ 0.958 µM)
- Ratio (Escherichia coli [16]): 2 - 4
- Ratio (Escherichia coli [17]): 2 - 4
- MIC (Pseudomonas aeruginosa): > 16 µg/mL
- MIC (Streptococcus agalactiae): > 16 µg/mL
- MIC (Escherichia coli [18]): 10 µg/mL (≈ 24 µM)
- MIC (Escherichia coli [19]): 0.2 µg/mL (≈ 0.479 µM)
- Ratio (Escherichia coli [20]): 8
- Ratio (Escherichia coli [21]): 10 - 100
- MIC (Escherichia coli [22]): 10 µg/mL (≈ 24 µM)
- Ratio (Escherichia coli [23]): 2 - 4
- Ratio [24]: 160
- Activity (Escherichia coli [25]): Active
- Ratio (Escherichia coli [26]): 2 - 4
- MIC (Klebsiella pneumoniae): > 16 µg/mL
- MIC (Escherichia coli [27]): 0.2 µg/mL (≈ 0.479 µM)
- MIC (Escherichia coli [28]): 0.2 µg/mL (≈ 0.479 µM)
- Ratio (Escherichia coli [29]): 10 - 100
- MIC [30]: > 16 µg/mL
- MIC (Escherichia coli [31]): 1 µg/mL (≈ 2.4 µM)
- MIC (Escherichia coli [32]): > 10 µg/mL
- MIC (Escherichia coli [33]): 10 µg/mL (≈ 24 µM)
- MIC (Escherichia coli [34]): 0.1 µg/mL
- Ratio (Escherichia coli [35]): 2 - 4
- MIC (Escherichia coli [36]): 8 µg/mL (≈ 19.2 µM)
- MIC (Escherichia coli [37]): 0.4 µg/mL (≈ 0.958 µM)
- MIC (Morganella morganii): > 16 µg/mL
- Ratio (Escherichia coli [38]): 10 - 100
- MIC (Escherichia coli [39]): 16 µg/mL (≈ 38.3 µM)

— ChEMBL document CHEMBL4261496, “Targeting quinolone- and aminocoumarin-resistant bacteria with new gyramide analogs that inhibit DNA gyrase” (Medchemcomm, 2017)
